{"source": "patent US9241488B2", "about": "“Azole derivative, method for producing azole derivative, and intermediate compound” (KUREHA CORPORATION, priority 2011, dated 2016)", "key": {"[1]": {"tested_on": "Wheat Septoria nodorum blotch microorganism (Phaeosphaeria nodorum)", "assay": "Anti-bacterial effect on various microorganisms (plate medium), P.n", "assay_type": "cell-based"}, "[2]": {"tested_on": "Rice bacterial seeding blight (Rhizopus oryzae)", "assay": "Anti-bacterial effect on various microorganisms (plate medium), R.o", "assay_type": "cell-based"}, "[3]": {"tested_on": "Wheat pink snow mold (Microdochium nivale)", "assay": "Anti-bacterial effect on various microorganisms (plate medium), M.n", "assay_type": "cell-based"}, "[4]": {"tested_on": "Alternaria blotch (Alternaria alternata)", "assay": "Anti-bacterial effect on various microorganisms (plate medium), A.m", "assay_type": "cell-based"}, "[5]": {"tested_on": "Wheat fusarium blight (Fusarium graminearum)", "assay_type": "cell-based"}, "[6]": {"tested_on": "Rice blast (Pyricularia oryzae)", "assay_type": "cell-based"}, "[7]": {"tested_on": "Sclerotinia rot (Sclerotinia sclerotiorum)", "assay": "Anti-bacterial effect on various microorganisms (plate medium), S.s", "assay_type": "cell-based"}, "[8]": {"tested_on": "Barley loose smut (Ustilago nuda)", "assay": "Anti-bacterial effect on various microorganisms (plate medium), U.n", "assay_type": "cell-based"}, "[9]": {"tested_on": "Rice bakanae disease (Giberella fujikuroi)", "assay": "Anti-bacterial effect on various microorganisms (plate medium), G.f", "assay_type": "cell-based"}, "[10]": {"tested_on": "Barley leaf blotch (Rhynchosporium secalis)", "assay": "Anti-bacterial effect on various microorganisms (plate medium), R. sec", "assay_type": "cell-based"}, "[11]": {"tested_on": "wheat leaf blight-causing microorganisms", "assay": "Anti-bacterial effect on wheat leaf blight-causing microorganisms (PDA plate, mycelial growth inhibition)", "assay_type": "cell-based, Septoria tritici", "details": "1.25 mg/L in PDA plate medium, 25° C., 14 days", "procedure": "In Test Examples, an anti-bacterial effect of a compound in accordance with the present invention on the wheat leaf blight-causing microorganisms was tested, and was compared with the anti-bacterial effect of a comparative compound (1).\nA dimethyl sulfoxide solution (0.6 ml) containing a compound in accordance with the present invention was added to a PDA medium (potato dextrose agar medium) (60 ml) having about 60° C., and the resultant mixture was mixed thoroughly in a 100-ml conical flask. The mixture was poured into a dish, and was solidified. […]\nOn the other hand, a subject microorganism previously cultured on a plate medium was cut out with use of a cork borer whose diameter was 4 mm, and the wheat leaf blight-causing microorganism on the plate medium thus cut out was inoculated to the chemical-containing plate medium described above. After such inoculation, the chemical-containing plate medium was incubated at 25° C. for 14 days, and then diameters of its flora were measured. A % mycelial growth inhibition was calculated with use of the formula. R=100(dc−dt)/dc (where R=% mycelial extension inhibition, dc=flora diameter in untreated plate, dt=flora diameter in treated plate)\nThe results obtained as described above were evaluated on a five-point scale according to the following criteria.\n• 5: % Mycerial growth inhibition of 80% or higher • 4: % Mycerial growth inhibition of less than 80 to 60% or higher • 3: % Mycerial growth inhibition of less than 60 to 40% or higher • 2: % Mycerial growth inhibition of less than 40 to 20% or higher • 1: % Mycerial growth inhibition of less than 20%"}, "[12]": {"tested_on": "Cucumber fusarium wilt (Fusarium oxysporum)", "assay": "Anti-bacterial effect on various microorganisms (plate medium), F.c", "assay_type": "cell-based"}, "[13]": {"tested_on": "Gray mold (Botritis cinerea)", "assay": "Anti-bacterial effect on various microorganisms (plate medium), B.c", "assay_type": "cell-based"}, "[14]": {"tested_on": "Wheat eye spot (Pseudocercoporella herpotrichoides)", "assay": "Anti-bacterial effect on various microorganisms (plate medium), P.h", "assay_type": "cell-based"}, "[15]": {"tested_on": "wheat-brown-rust-causing microorganisms", "assay": "Controlling effect on wheat brown rust (spray, pot test)", "assay_type": "in vivo, Puccinia recondita", "details": "1 mg/L sprayed at 1,000 L/ha, wheat NORIN No. 61, 9 to 14 days after inoculation", "procedure": "Onto a wheat plant (cultivar: NORIN No. 61) grown to the two-leaf stage with use of a square plastic pot (6 cm×6 cm), a wettable formulation such as Formulation Example 1 which was diluted and suspended in water at a concentration of 1 mg/L was sprayed at a rate of 1,000 L/ha. The sprayed leaves were air-dried, and inoculated with spore suspension of wheat-brown-rust-causing microorganisms (adjusted at 200 spores/vision, […] was added at 60 ppm) by spraying, and kept at 25° C. and a high humidity for 48 hours. Thereafter, the plant was kept in a greenhouse. Nine to fourteen days after inoculation, the wheat brown rust lesion degree was evaluated. The protective value was calculated by the following equation. Protective value (%)=(1-mean lesion degree in sprayed plot/mean lesion degree in unsprayed plot)×100 [table] [table]"}}, "note": "Where two headings read alike, the source gives them in different places.", "data": [{"smiles": "COC[C@]1(CBr)CC[C@@H](Cc2ccc(F)cc2)[C@]1(O)Cn1cncn1", "note": "(racemic) [Compound I-198, (1RS,2RS,5SR)-5-(4-fluorobenzyl)-2-bromomethyl-2-methoxymethyl-1H-[1,2,4]triazole-1-ylmethylcyclopentanol]", "values": [{"measurement": "Growth inhibition grade P.n", "setting": "[1]; 1.25 mg/L", "value": "4 (% Mycerial growth inhibition of less than 80 to 60% or higher)"}, {"measurement": "Growth inhibition grade P.n", "setting": "[1]; 5 mg/L", "value": "5 (% Mycerial growth inhibition of 80% or higher)"}, {"measurement": "Growth inhibition grade R.o", "setting": "[2]; 1.25 mg/L", "value": "5 (% Mycerial growth inhibition of 80% or higher)"}, {"measurement": "Growth inhibition grade R.o", "setting": "[2]; 5 mg/L", "value": "5 (% Mycerial growth inhibition of 80% or higher)"}, {"measurement": "Growth inhibition grade M.n", "setting": "[3]; 1.25 mg/L", "value": "4 (% Mycerial growth inhibition of less than 80 to 60% or higher)"}, {"measurement": "Growth inhibition grade M.n", "setting": "[3]; 5 mg/L", "value": "5 (% Mycerial growth inhibition of 80% or higher)"}, {"measurement": "Growth inhibition grade A.m", "setting": "[4]; 1.25 mg/L", "value": "4 (% Mycerial growth inhibition of less than 80 to 60% or higher)"}, {"measurement": "Growth inhibition grade A.m", "setting": "[4]; 5 mg/L", "value": "5 (% Mycerial growth inhibition of 80% or higher)"}, {"measurement": "Growth inhibition grade F.g", "setting": "[5]; 1.25 mg/L", "value": "4 (% Mycerial growth inhibition of less than 80 to 60% or higher)"}, {"measurement": "Growth inhibition grade F.g", "setting": "[5]; 5 mg/L", "value": "5 (% Mycerial growth inhibition of 80% or higher)"}, {"measurement": "Growth inhibition grade P.o", "setting": "[6]; 1.25 mg/L", "value": "5 (% Mycerial growth inhibition of 80% or higher)"}, {"measurement": "Growth inhibition grade P.o", "setting": "[6]; 5 mg/L", "value": "5 (% Mycerial growth inhibition of 80% or higher)"}, {"measurement": "Growth inhibition grade S.s", "setting": "[7]; 1.25 mg/L", "value": "5 (% Mycerial growth inhibition of 80% or higher)"}, {"measurement": "Growth inhibition grade S.s", "setting": "[7]; 5 mg/L", "value": "5 (% Mycerial growth inhibition of 80% or higher)"}, {"measurement": "Growth inhibition grade U.n", "setting": "[8]; 1.25 mg/L", "value": "4 (% Mycerial growth inhibition of less than 80 to 60% or higher)"}, {"measurement": "Growth inhibition grade U.n", "setting": "[8]; 5 mg/L", "value": "5 (% Mycerial growth inhibition of 80% or higher)"}, {"measurement": "Growth inhibition grade G.f", "setting": "[9]; 1.25 mg/L", "value": "5 (% Mycerial growth inhibition of 80% or higher)"}, {"measurement": "Growth inhibition grade G.f", "setting": "[9]; 5 mg/L", "value": "5 (% Mycerial growth inhibition of 80% or higher)"}, {"measurement": "Growth inhibition grade R. sec", "setting": "[10]; 1.25 mg/L", "value": "5 (% Mycerial growth inhibition of 80% or higher)"}, {"measurement": "Growth inhibition grade R. sec", "setting": "[10]; 5 mg/L", "value": "5 (% Mycerial growth inhibition of 80% or higher)"}, {"measurement": "Growth inhibition grade", "setting": "[11]", "value": "5 (% Mycerial growth inhibition of 80% or higher)"}, {"measurement": "Growth inhibition grade F.c", "setting": "[12]; 1.25 mg/L", "value": "5 (% Mycerial growth inhibition of 80% or higher)"}, {"measurement": "Growth inhibition grade F.c", "setting": "[12]; 5 mg/L", "value": "5 (% Mycerial growth inhibition of 80% or higher)"}, {"measurement": "Growth inhibition grade B.c", "setting": "[13]; 1.25 mg/L", "value": "5 (% Mycerial growth inhibition of 80% or higher)"}, {"measurement": "Growth inhibition grade B.c", "setting": "[13]; 5 mg/L", "value": "5 (% Mycerial growth inhibition of 80% or higher)"}, {"measurement": "Growth inhibition grade P.h", "setting": "[14]; 1.25 mg/L", "value": "4 (% Mycerial growth inhibition of less than 80 to 60% or higher)"}, {"measurement": "Growth inhibition grade P.h", "setting": "[14]; 5 mg/L", "value": "5 (% Mycerial growth inhibition of 80% or higher)"}, {"measurement": "Protective value", "setting": "[15]", "value": "4 (61 to 80)"}]}]}
